ChEMBL document CHEMBL1201862, “PubChem BioAssay data set” (2004)
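These data come from cells grown in 96-well plates and exposed to compound for 48 hours at five concentrations. Here, GI50 denotes the concentration required for 50% inhibition of growth.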 The source made the active and inactive calls. Cut-off read from the data, not from the text of the source: active = GI50 up to about 1.1 µM and inactive = higher.

Experiments:
Assay in all cases: growth of human tumour cells (NCI), 48 h
Hs-578T = test system: Hs-578T
RPMI-8226 = test system: RPMI-8226
MOLT-4 = test system: MOLT-4
NCI-H460 = test system: NCI-H460
MDA-N = test system: MDA-N
A498 = test system: A498
OVCAR-5 = test system: OVCAR-5
SK-OV-3 = test system: SK-OV-3
EKVX = test system: EKVX
RXF 393 = test system: RXF 393
HOP-92 = test system: HOP-92
SF-295 = test system: SF-295
M14 = test system: M14
KM12 = test system: KM12
ACHN = test system: ACHN
A549 = test system: A549
HL-60 = test system: HL-60
DU-145 = test system: DU-145
SK-MEL-28 = test system: SK-MEL-28
CCRF-CEM = test system: CCRF-CEM

Structure (SMILES)	GI50 (Hs-578T)	GI50 (RPMI-8226)	GI50 (MOLT-4)	GI50 (NCI-H460)	GI50 (MDA-N)	GI50 (A498)	GI50 (OVCAR-5)	GI50 (SK-OV-3)	GI50 (EKVX)	GI50 (RXF 393)	GI50 (HOP-92)	GI50 (SF-295)	GI50 (M14)	GI50 (KM12)	GI50 (ACHN)	GI50 (A549)	GI50 (HL-60)	GI50 (DU-145)	GI50 (SK-MEL-28)	GI50 (CCRF-CEM)
C/C1=C/C(C)CC(C)OC(=O)C(C)NC(=O)C(Cc2ccc(O)c(I)c2)N(C)C(=O)CNC(=O)C(C)C1 (stereo not given)	< 0.0109 µM (active)	< 0.01 µM (active)	< 0.0178 µM (active)	< 0.01 µM (active)	< 0.01 µM (active)	< 0.01 µM (active)	8.81 µM (inactive)	< 0.01 µM (active)	0.0443 µM (active)	< 0.01 µM (active)	< 0.0112 µM (active)	0.0101 µM (active)	0.0102 µM (active)	< 0.01 µM (active)	< 0.01 µM (active)	< 0.01 µM (active)	< 0.01 µM (active)	0.0643 µM (active)	0.105 µM (active)	< 0.01 µM (active)
C=C(C)C1CC=C(C)C2(C1)OCC(C)(C)C(C)O2 (stereo not given)	27.9 µM (inactive)	17.9 µM (inactive)	20.1 µM (inactive)	26.1 µM (inactive)	21 µM (inactive)	14.6 µM (inactive)	19.3 µM (inactive)	23.4 µM (inactive)	24.7 µM (inactive)	13.7 µM (inactive)	11.2 µM (inactive)	19.5 µM (inactive)	22.2 µM (inactive)	16.9 µM (inactive)	18.3 µM (inactive)	17.3 µM (inactive)	15 µM (inactive)	31 µM (inactive)	24 µM (inactive)	24.7 µM (inactive)
COC(=O)C1Cc2cccc(C)c2C1 (stereo not given)	> 100 µM (inactive)	93.5 µM (inactive)	46.6 µM (inactive)	> 100 µM (inactive)	> 100 µM (inactive)	> 100 µM (inactive)	> 100 µM (inactive)	> 100 µM (inactive)	> 100 µM (inactive)	> 100 µM (inactive)	> 100 µM (inactive)	> 100 µM (inactive)	> 100 µM (inactive)	> 100 µM (inactive)	> 100 µM (inactive)	> 100 µM (inactive)	65.5 µM (inactive)	> 100 µM (inactive)	> 100 µM (inactive)	66.5 µM (inactive)
COc1cccc(OC)c1/C=C1\OC(=O)c2cccc(OC)c21	3.96 µM (inactive)	3.46 µM (inactive)	5.64 µM (inactive)	2.65 µM (inactive)	0.596 µM (active)	4.14 µM (inactive)	13.2 µM (inactive)	5.2 µM (inactive)	10.3 µM (inactive)	4.61 µM (inactive)	8.69 µM (inactive)	3.13 µM (inactive)	4.1 µM (inactive)	1.74 µM (inactive)	8.59 µM (inactive)	7.36 µM (inactive)	0.931 µM (active)	5.32 µM (inactive)	6.7 µM (inactive)	3.84 µM (inactive)
O=C(N/N=C/c1ccc([N+](=O)[O-])cc1)Nc1ccc(C(=O)O)cc1	45.4 µM (inactive)	18.7 µM (inactive)	22.9 µM (inactive)	26.5 µM (inactive)	30.5 µM (inactive)	20.2 µM (inactive)	40.6 µM (inactive)	21.3 µM (inactive)	23.1 µM (inactive)	26.1 µM (inactive)	16.9 µM (inactive)	17.4 µM (inactive)	37.4 µM (inactive)	27.7 µM (inactive)	26.7 µM (inactive)	35.3 µM (inactive)	37.2 µM (inactive)	29.9 µM (inactive)	41.7 µM (inactive)	30.6 µM (inactive)
COc1cc2c(cc1OC)C1=CCC(c3ccccc3)[N+]1(C)CC2 (stereo not given)	> 100 µM (inactive)	> 100 µM (inactive)	> 100 µM (inactive)	> 100 µM (inactive)	> 100 µM (inactive)	> 100 µM (inactive)	> 100 µM (inactive)	> 100 µM (inactive)	> 100 µM (inactive)	> 100 µM (inactive)	> 100 µM (inactive)	> 100 µM (inactive)	> 100 µM (inactive)	> 100 µM (inactive)	> 100 µM (inactive)	> 100 µM (inactive)	> 100 µM (inactive)	> 100 µM (inactive)	> 100 µM (inactive)	> 100 µM (inactive)
CC1=C(C(=O)Nc2cccc3c2C(=O)NC3=O)CC(C(=O)Nc2cccc3c2C(=O)NC3=O)=C(C)N1	> 100 µM (inactive)	> 100 µM (inactive)	> 100 µM (inactive)	> 100 µM (inactive)	> 100 µM (inactive)	> 100 µM (inactive)	> 100 µM (inactive)	> 100 µM (inactive)	> 100 µM (inactive)	> 100 µM (inactive)	> 100 µM (inactive)	> 100 µM (inactive)	> 100 µM (inactive)	> 100 µM (inactive)	> 100 µM (inactive)	> 100 µM (inactive)	> 100 µM (inactive)	> 100 µM (inactive)	> 100 µM (inactive)	> 100 µM (inactive)
C[N+]12CCCCC1C(COc1cccc3cccnc13)CCC2 (stereo not given)	> 100 µM (inactive)	34.4 µM (inactive)	> 100 µM (inactive)	58.6 µM (inactive)	93.5 µM (inactive)	> 100 µM (inactive)	> 100 µM (inactive)	> 100 µM (inactive)	> 100 µM (inactive)	> 100 µM (inactive)	15.9 µM (inactive)	> 100 µM (inactive)	> 100 µM (inactive)	> 100 µM (inactive)	> 100 µM (inactive)	> 100 µM (inactive)	> 100 µM (inactive)	> 100 µM (inactive)	> 100 µM (inactive)	> 100 µM (inactive)
C/C=C/[C@H]1O[C@@](O)([C@@H](C)[C@H](O)[C@H](C)[C@H]2OC(=O)/C(OC)=C/C(C)=C/[C@@H](C)[C@@H](O)[C@@H](CC)[C@@H](O)[C@H](C)C/C(C)=C/C=C/[C@@H]2OC)C[C@H](OC2CC(O)C(O)C(C)O2)[C@@H]1C (stereo not given in full)	< 0.0075 µM (active)	< 0.0075 µM (active)	< 0.0075 µM (active)	< 0.0075 µM (active)	< 0.0075 µM (active)	5.01 µM (inactive)	3.49 µM (inactive)	8.04 µM (inactive)	< 0.0075 µM (active)	0.121 µM (active)	0.19 µM (active)	< 0.0075 µM (active)	< 0.0075 µM (active)	< 0.0075 µM (active)	< 0.0075 µM (active)	< 0.0075 µM (active)	< 0.0075 µM (active)	0.256 µM (active)	0.114 µM (active)	< 0.0075 µM (active)
C=CCc1[nH]c2c(OCc3ccccc3)cc(N(CC=C)C(C)=O)cc2c1C	14.2 µM (inactive)	12.1 µM (inactive)	5.77 µM (inactive)	14.8 µM (inactive)	14.4 µM (inactive)	12.5 µM (inactive)	14.1 µM (inactive)	16.4 µM (inactive)	8.45 µM (inactive)	11.2 µM (inactive)	12.7 µM (inactive)	13 µM (inactive)	10.1 µM (inactive)	13.3 µM (inactive)	12.8 µM (inactive)	13.4 µM (inactive)	12.8 µM (inactive)	14.1 µM (inactive)	16.9 µM (inactive)	22.3 µM (inactive)
